Laboratory results: patent US20170216296A1, “METHODS OF TREATING HYPERGLYCEMIA” (Concert Pharmaceuticals, Inc., priority 2014, published 2017)

How the values were obtained:
HbAlc [1] = experiment: Phase 2 placebo-controlled clinical trial, HbAlc in whole blood; format: in vivo, human; settings: for least square mean HbAlc value: 600 mg twice daily, preliminary, FIG. 1
Method: A Phase 2 placebo-controlled clinical trial of Compound (V) was conducted in patients with type 2 diabetic kidney disease and macroalbuminuria. The purpose of the trial was to compare Compound (V) to placebo in terms of safety and efficacy with respect to measures of renal function such as urinary albumin to creatinine ratio, serum creatinine levels, and estimated glomerular filtration rate. HbAlc was measured but was not an intended endpoint of the trial. Thus, while the study was controlled for other medications, it was not controlled for anti-glycemic medications nor were the placebo and treated groups matched for baseline HbAlc levels.
All patients enrolled in the clinical trial were concurrently treated with angiotensin modulators. The clinical trial consists of three parts, two of which were completed and a third part that is on-going. Part 1 was a double-blind, parallel, two-arm, placebo-controlled study evaluating the safety and efficacy of 600 mg of Compound (V) twice daily for 24 weeks. 182 patients were enrolled in this first part of the trial. Part 2 was a blinded 24-week extension study in which all patients who completed Part 1 were eligible to continue receiving 600 mg of Compound (V) or placebo twice daily. 143 patients were enrolled in this part of the clinical trial and have completed dosing. 123 of the 143 patients that were enrolled in Part 2 of the clinical trial completed Part 2. The combined 48 weeks of data from Parts 1 and 2 of the clinical trial have been analyzed. 102 patients enrolled in Part 3 which is a 48 week open-label extension study that is on-going. All patients who completed Part 2 were eligible to receive 600 mg of Compound (V) twice daily.
The key criteria for patients to be included in the clinical trial were (a) eGFR from 23 to 89 mL/min/1.73 m2, a measure of kidney function which indicates mild to moderately severe type 2 diabetic kidney disease; (b) having been on a stable angiotensin modulation regimen for a minimum of four weeks prior to initiating screening and nine weeks prior to initiating dosing; (c) blood pressure less than or equal to 145/90 mm Hg; (d) glycosylated hemoglobin Alc (HbAlc) less than or equal to 10.5%; and (e) UACR greater than or equal to 200 mg/g in male patients and 300 mg/g in female patients, ratios of albumin to creatinine that are indicative of substantial kidney damage in men and women, but not more than 5,000 mg/g, a ratio indicative of severe kidney disease. HbAlc in whole blood samples was measured by ion-exchange chromatography using a TOSOH HLC-723G8 HPLC analyzer.
The procedure is similar to the one described in the Laboratory Procedure Manual of the Centers for Disease Control and Prevention. See www.cdc.gov/nchs/data/nhanes/nhanes_11_12/GHB_met_G_Tosoh_G8.pdf. The TOSOH instrument can reliably detect HbAlc levels in the range of 4.0-16.8%.
Patients were sampled at weeks 0, 12, 24, 36 and 48 weeks (see FIG. 1). The value at 0 weeks was calculated as the mean of values recorded on Days −28, −7 and −1. In other words, the patients were tested 4 weeks before the trial, one week before the trial and one day before. The mean value of the measurements was recorded as Day 0 for the trial.

HbAlc [2] = settings: 100 patients with type 2 diabetes; cited from earlier work

Row | Structure (SMILES) | lowering of HbAlc in the treated group relative to placebo (HbAlc [1]; Part 1 and Part 2 (48 weeks), p=0.0001) | least square mean HbAlc value (HbAlc [1]; after Part 1 and Part 2 of the trial (48 weeks)) | least square mean HbAlc value (HbAlc [1]; beginning of the trial (week 0, mean of Days -28, -7 and -1), patients with type 2 diabetic kidney disease and macroalbuminuria) | effect on hemoglobin glycosylation (HbAlc [1]; group receiving compound, sampled at weeks 0, 12, 24, 36 and 48) | drop in AlC (HbAlc [1]; overall group change from baseline, FIG. 2 (week 12), placebo 0.23 increase, statistically significant) | patients with lower HbAlc after 12 weeks (HbAlc [1]; week 12 change from baseline, number of patients/patients in arm, FIG. 2, placebo 33/79) | effect on HbAlC (HbAlc [2])
1 | [2H]C([2H])([2H])[C@H](O)C([2H])([2H])CCCn1c(=O)c2c(ncn2C)n(C)c1=O [Compound (V)] | statistically significant | 7.1 | 7.7 | positive effect | 0.35 | 57/83 | 
2 | CC(=O)CCCCn1c(=O)c2c(ncn2C)n(C)c1=O [Pentoxifylline] |  |  |  |  |  |  | no effect
